The source of these data is patent US20040063843A1, “Coating solutions” (Honeywell International, Inc., priority 2002, published 2004).

The nature of series [1]: Surface tension measurement, Nouy ring method. The series is classed as physicochemical. Conditions: 20 ml aliquot, Kruss Model K 10 ST; liquid carrier tetrafluoropropanol, no coating moiety. The protocol: Samples of coating solution (Examples 8, 9, 10, and 11) were prepared by blending in a vessel a measured volume of a liquid carrier (tetrafluoropropanol) and a fluorocarbon surface tension-reducing agent (1,1,1,3,3-pentafluoropropane, HFC245fa) to give the Vol. % compositions indicated in Table 3, below.
Surface tension was measured using the Nouy ring method and a Kruss Instrument Model K 10 ST.
In a typical determination, a 20 ml aliquot of the liquid to be tested was placed in the instrument and the surface tension was measured by the published procedure described above. Measurements were carried out for neat tetrafluropropanol (a liquid carrier, Table 3, Comparative Example #3), neat 1,1,1,3,3-pentafluropropane (HFC245fa, as a fluorocarbon surface tension-reducing agent, Table 3, Example # 11), and coating solution formulations (sans a coating moiety) comprising mixtures of tetrafluropropanol with 25 Vol. %, 50 Vol. %, and 75 Vol. % 1,1,1,3,3-pentafluropropane (Table 3, Examples 8, 9 and 10 respectively).

Series [2] is classed as physicochemical. The protocol:
Coating solvent was prepared by blending in a vessel a measured volume of a liquid carrier (tetrafluoropropanol) and as a surface tension-reducing agent 1,1,1,3,3-pentafluoropropane (HFC245fa) to give a solvent having the constituent volumetric ratios shown in Table I, below.
Solubility was determined by adding dye powder slowly to a weighed 100 ml aliquot of the coating solvent in a vessel. The solvent was stirred to dissolve the dye. When no more dye would dissolve, the dye addition was stopped and the solvent reweighed to determine the amount of dye that had been dissolved in the solvent.

The molecule `FC(F)CC(F)(F)F` [Example # 11, 1,1,1,3,3-pentafluropropane] had a Surface Tension in series [1] of 18 mN/m.

As for Tetrafluoropropanol [compound 1], in series [2], the “Dye A Solubility” value worked out at 10.7 g/100 ml and the “Dye B Solubility” value turned out to be 11.3 g/100 ml.
